Measured values reported in patent US4876277A, “Antimicrobial/antifungal compositions” (Plant Cell Research Institute, Inc., priority 1987, dated 1989).
Values after ≈ are worked out from the molar mass of the structure shown. Like-named read-outs stand apart in the source and are kept apart here.

Tests used:
fish = conditions: in vivo; cited from earlier work
Erysiphe graminis = assay: in vivo fungicide screen: wheat powdery mildew (WPM); conditions: for % compared to control, WPM: 100 ppm, foliar spray before infection
apples = conditions: in vivo; cited from earlier work
weeds = assay: pre-emergent and post-emergent herbicide screening tests; type: in vivo
Source text: (§1) As noted above the compounds are ineffective as herbicides against one or more of the following weeds: average dicots, cocklebur, morning glory, pigweed, smartweed, velvet leaf, average monocots, barnyard grass, green foxtail, johnson grass, yellow nutsedge and the wild oat in both pre-emergent and post-emergent screening tests, at application rates of 2 lbs/acre for Compound 4, and 4 lbs/acre for Compound 5.

mexican bean beetle = assay: insecticide activity: mexican bean beetle; type: in vivo; conditions: 150 to 600 ppm
green peach aphid = assay: insecticide activity: green peach aphid; type: in vivo; conditions: 150 to 600 ppm
Piricularia oryzae = type: in vivo
southern armyworm = assay: insecticide activity: southern armyworm; type: in vivo; conditions: 150 to 600 ppm
[1] = test system: Xanthomonas campestris pv. campestris; assay: ED50 on bacteria, liquid nutrient medium: X. campestris pv. campestris; type: cell-based; conditions: 48 h, Example 7, two days, read-out: ED50 concentration, X.C. pv. campestris
[2] = test system: Pseudoperonospora cubensis; assay: in vivo fungicide screen: cucumber downy mildew (CDM); conditions: for % compared to control, CDM: 100 ppm, foliar spray before infection
Alternaria chrysanthemi = assay: ED50 on fungi, mycelial growth on V-8 juice agar: Alternaria chrysanthemi; type: cell-based; conditions: Example 6, 72 hrs, read-out: ED50 concentration, AC
average dicots = assay: herbicide screening: average dicots; conditions: in vivo
Source text: as §1

two-spotted spider mite = assay: insecticide activity: two-spotted spider mite; type: in vivo; conditions: 150 to 600 ppm
green foxtails = assay: herbicide screening: green foxtails; conditions: in vivo
Source text: as §1

Pellicularia filamentosa = assay: in vivo fungicide screen: rice sheath blight (RSB); conditions: for % compared to control, RSB: 100 ppm, foliar spray before infection
Cladosporium herbarum = assay: ED50 on fungi, mycelial growth on V-8 juice agar: Cladosporium herbarum; type: cell-based; conditions: Example 2, 72 hrs, read-out: ED50 concentration, CH
pigweed = assay: herbicide screening: pigweed; conditions: in vivo
Source text: as §1

[3] = test system: Saccharomyces cerevisiae from Universal Foods; assay: ED50 on yeast, liquid nutrient medium: Yeast I; type: cell-based; conditions: 48 h, read-out: ED50 concentration, Yeast-I
[4] = test system: Agrobacterium tumefaciens; assay: ED50 on bacteria, liquid nutrient medium: Agrobacterium tumefaciens; type: cell-based; conditions: 48 h, Example 9, two days, read-out: ED50 concentration, AT
Xanthomonas campestris = assay: activity on Xanthomonas campestris; type: cell-based
Alternaria brassicicola = assay: ED50 on fungi, mycelial growth on V-8 juice agar: Alternaria brassicicola; type: cell-based; conditions: Example 4, 72 hrs, read-out: ED50 concentration, AB
Pyrenochaeta terrestris = assay: ED50 on fungi, mycelial growth on V-8 juice agar: Pyrenochaeta terrestris; type: cell-based; conditions: Setophoma terrestris, Example 5, 72 hrs, read-out: ED50 concentration, PT
average monocots = assay: herbicide screening: average monocots; conditions: in vivo
Source text: as §1

[5] = test system: Helminthosporium carbonum; assay: ED50 on fungi, mycelial growth on V-8 juice agar: Helminthosporium carbonum; type: cell-based; conditions: Bipolaris zeicola, Example 3, 72 hrs, read-out: ED50 concentration, HC
velvet leaf = assay: herbicide screening: velvet leaf; conditions: in vivo
Source text: as §1

Puccinia recondita = assay: in vivo fungicide screen: wheat leaf rust (WLR); conditions: for % compared to control, WLR: 100 ppm, foliar spray before infection
Rhizobium japonicum = assay: ED50 on bacteria, liquid nutrient medium: Rhizobium japonicum; type: cell-based; conditions: Bradyrhizobium japonicum, 48 h, Example 10, two days, read-out: ED50 concentration, RJ
[6] = test system: haploid lab strain from Yeast I; assay: ED50 on yeast, liquid nutrient medium: Yeast II; type: cell-based; conditions: Saccharomyces cerevisiae, 48 h, read-out: ED50 concentration, Yeast-II
[7] = test system: southern root knot nematode; assay: insecticide activity: southern root knot nematode; type: in vivo; conditions: 150 to 600 ppm
Phytophtora infestans = type: in vivo
southern corn rootworm = assay: insecticide activity: southern corn rootworm; type: in vivo; conditions: 150 to 600 ppm
signal grass = assay: herbicide screening: signal grass; conditions: in vivo
smartweed = assay: herbicide screening: smartweed; conditions: in vivo
Source text: as §1

[8] = test system: Xanthomonas campestris pv. carotae; assay: ED50 on bacteria, liquid nutrient medium: X. campestris pv. carotae; type: cell-based; conditions: 48 h, read-out: ED50 concentration, X.C. pv. carotae
johnson grass = assay: herbicide screening: johnson grass; conditions: in vivo
Source text: as §1

yellow nutsedge = assay: herbicide screening: yellow nutsedge; conditions: in vivo
Source text: as §1

wild oat = assay: herbicide screening: wild oat; conditions: in vivo
Source text: as §1

cockleburr = assay: herbicide screening: cocklebur; conditions: in vivo
Source text: as §1

morning glory = assay: herbicide screening: morning glory; conditions: in vivo
Source text: as §1

barnyard grass = assay: herbicide screening: barnyard grass; conditions: in vivo
Source text: as §1

flour beetles = conditions: in vivo; cited from earlier work
cockroaches = conditions: in vivo; cited from earlier work
houseflies = conditions: in vivo; cited from earlier work
[9] = 100 ppm, foliar spray before infection

Compound: CC(C)(C)C(=O)C(Oc1ccc(Cl)cc1)n1cncn1 (stereo not drawn) [BAYLETON]
- toxicity to fish (fish): toxic to fish
- activity preventing infection of wheat by Erysiphe graminis (Erysiphe graminis; in vivo): 100%

Compound: CCCCNC(=O)n1c(NC(=O)OC)nc2ccccc21 [BENOMYL, methyl 1-(butylcarbamoyl)-2-benzimidazolecarbonate]
- fruit finish of apples (apples): apples do not express fine fruit finish
- toxicity to fish (fish): toxic to fish
- activity preventing infection of wheat by Erysiphe graminis (Erysiphe graminis; in the range of 38-300 ppm): 100%

Compound: C=CCc1cc(OC)c(O)c2c1OCO2 [Compound 4, 6-methoxy-2,3-methylenedioxy-4-allyl phenol]
- herbicide effect against one or more of the listed weeds (weeds; 2 lbs/acre): ineffective
- insecticide activity, mexican bean beetle (mexican bean beetle): ineffective
- insecticide activity, green peach aphid (green peach aphid): ineffective
- % compared to control, RB (Piricularia oryzae; [9]): 0%
- insecticide activity, southern armyworm (southern armyworm): ineffective
- IC50 [1]: 10 µg/mL (≈ 48 µM)
- % compared to control, CDM [2]: 0%
- IC50 (Alternaria chrysanthemi): 10 µg/mL (≈ 48 µM)
- herbicide effect, average dicots (average dicots): ineffective
- insecticide activity, two-spotted spider mite (two-spotted spider mite): ineffective
- herbicide effect, green foxtails (green foxtails): ineffective
- % compared to control, RSB (Pellicularia filamentosa): 0%
- IC50 (Cladosporium herbarum): 16.5 µg/mL (≈ 79.2 µM)
- herbicide effect, pigweed (pigweed): ineffective
- IC50 ([3]; Example 11, liquid medium, two days): > 500 µg/mL
- IC50 [4]: > 200 µg/mL
- effect on Xanthomonas campestris (Xanthomonas campestris): effective
- IC50 (Alternaria brassicicola): 8 µg/mL (≈ 38.4 µM)
- IC50 (Pyrenochaeta terrestris): 10 µg/mL (≈ 48 µM)
- herbicide effect, average monocots (average monocots): ineffective
- IC50 [5]: 18 µg/mL (≈ 86.4 µM)
- herbicide effect, velvet leaf (velvet leaf): ineffective
- % compared to control, WLR (Puccinia recondita): 0%
- IC50 (Rhizobium japonicum): > 500 µg/mL
- IC50 ([6]; Example 12, liquid medium, two days): > 500 µg/mL
- insecticide activity, southern root knot nematode [7]: ineffective
- % compared to control, WPM (Erysiphe graminis): 75%
- % compared to control, TLB (Phytophtora infestans; [9]): 0%
- insecticide activity, southern corn rootworm (southern corn rootworm): ineffective
- herbicide effect, signal grass (signal grass): ineffective

Compound: C=CCc1cc(OC)c(OC)c2c1OCO2 [Compound 5, 4,5-dimethoxy-2,3-methylenedioxy-1-allyl benzene]
- herbicide effect against one or more of the listed weeds (weeds; 4 lbs/acre): ineffective
- herbicide effect, smartweed (smartweed): ineffective
- % compared to control, RB (Piricularia oryzae; in vivo): 0%
- effectiveness against rice blast (Piricularia oryzae; in vivo): substantially ineffective
- IC50 [8]: 10 µg/mL (≈ 45 µM)
- IC50 [1]: 10 µg/mL (≈ 45 µM)
- % compared to control, CDM [2]: 0%
- effectiveness against cucumber downy mildew ([2]; in vivo): substantially ineffective
- herbicide effect, johnson grass (johnson grass): ineffective
- IC50 (Alternaria chrysanthemi): 10 µg/mL (≈ 45 µM)
- herbicide effect, average dicots (average dicots): ineffective
- herbicide effect, green foxtails (green foxtails): ineffective
- % compared to control, RSB (Pellicularia filamentosa): 0%
- effectiveness against rice sheath blight (Pellicularia filamentosa; in vivo): substantially ineffective
- herbicide effect, yellow nutsedge (yellow nutsedge): ineffective
- herbicide effect, wild oat (wild oat): ineffective
- IC50 (Cladosporium herbarum): 16 µg/mL (≈ 72 µM)
- herbicide effect, pigweed (pigweed): ineffective
- IC50 [3]: > 500 µg/mL
- IC50 [4]: > 200 µg/mL
- herbicide effect, cockleburr (cockleburr): ineffective
- herbicide effect, morning glory (morning glory): ineffective
- IC50 (Alternaria brassicicola): 8 µg/mL (≈ 36 µM)
- IC50 (Pyrenochaeta terrestris): 10 µg/mL (≈ 45 µM)
- herbicide effect, average monocots (average monocots): ineffective
- IC50 [5]: 16 µg/mL (≈ 72 µM)
- herbicide effect, velvet leaf (velvet leaf): ineffective
- herbicide effect, barnyard grass (barnyard grass): ineffective
- % compared to control, WLR (Puccinia recondita): 0%
- effectiveness against wheat leaf rust (Puccinia recondita; in vivo): substantially ineffective
- IC50 (Rhizobium japonicum): > 500 µg/mL
- IC50 [6]: > 500 µg/mL
- % compared to control, WPM (Erysiphe graminis): 95%
- % compared to control, TLB (Phytophtora infestans; in vivo): 0%
- effectiveness against tomato leaf blight (Phytophtora infestans; in vivo): substantially ineffective

Compound: CCOP(=O)(Sc1ccccc1)Sc1ccccc1 [EDIFENPHOS, O-ethyl-S,S-diphenyl-dithiophosphate]
- toxicity to fish (fish): toxic to fish
- activity preventing infection of wheat by Erysiphe graminis (Erysiphe graminis; in the range of 75-300 ppm): 100%

Compound: CC(C)OC(=O)C(C(=O)OC(C)C)=C1SCCS1 [FUJI-ONE, diissopropyl-1,3-dithiolau-2-ylidane malonate]
- activity preventing infection of wheat by Erysiphe graminis (Erysiphe graminis; at up to 300 ppm): 0%

Compound: C=CCOC1=NS(=O)(=O)c2ccccc21 [ORYZEMATE]
- activity preventing infection of wheat by Erysiphe graminis (Erysiphe graminis; at up to 300 ppm): 0%

Compound: CCCc1cc2c(c(OC)c1OC)OCO2 [propyl analog of dillapiole]
- synergic with pyrethrins against flour beetles (flour beetles): effective synergic
- synergic with pyrethrins against cockroaches (cockroaches): effective synergic
- synergic with pyrethrins against houseflies (houseflies): effective synergic

Compound: MANCOZEB
- activity preventing infection of wheat by Erysiphe graminis (Erysiphe graminis; at up to 300 ppm): 0%
